Measured values taken from patent US10934263B2, “Charged ion channel blockers and methods for use” (Nocion Therapeutics, Inc., priority 2019, dated 2021).

Experiments:
[1] = PAMPA membrane permeability assay; format: in vitro ADME; details: PAMPA permeability coefficient, GIT lipid, buffer pH 7.4, 4 hours incubation
Summary of the method: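 Passive permeability across GIT lipid-coated artificial membrane; compounds at 50 μM in pH 7.4 buffer in donor wells, incubated 4 h. Donor, acceptor and reference concentrations read by UV spectroscopy, permeability coefficient calculated from spectral AUCs.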

NaV1.7 = target: T1, NaV1.7 (Homo sapiens, UniProt Q15858); experiment: Automated patch clamp (Qube 384), internal block of NaV1.7 in HEK293 cells; format: cell-based; details: compound in internal solution, read-out: Nav1.7 Intracellular Inhibition (IC50)
T1 construct: expressed in transfected cells; tetracycline-inducible, kept under hygromycin and blasticidin
T1 sequence (Q15858 whole entry): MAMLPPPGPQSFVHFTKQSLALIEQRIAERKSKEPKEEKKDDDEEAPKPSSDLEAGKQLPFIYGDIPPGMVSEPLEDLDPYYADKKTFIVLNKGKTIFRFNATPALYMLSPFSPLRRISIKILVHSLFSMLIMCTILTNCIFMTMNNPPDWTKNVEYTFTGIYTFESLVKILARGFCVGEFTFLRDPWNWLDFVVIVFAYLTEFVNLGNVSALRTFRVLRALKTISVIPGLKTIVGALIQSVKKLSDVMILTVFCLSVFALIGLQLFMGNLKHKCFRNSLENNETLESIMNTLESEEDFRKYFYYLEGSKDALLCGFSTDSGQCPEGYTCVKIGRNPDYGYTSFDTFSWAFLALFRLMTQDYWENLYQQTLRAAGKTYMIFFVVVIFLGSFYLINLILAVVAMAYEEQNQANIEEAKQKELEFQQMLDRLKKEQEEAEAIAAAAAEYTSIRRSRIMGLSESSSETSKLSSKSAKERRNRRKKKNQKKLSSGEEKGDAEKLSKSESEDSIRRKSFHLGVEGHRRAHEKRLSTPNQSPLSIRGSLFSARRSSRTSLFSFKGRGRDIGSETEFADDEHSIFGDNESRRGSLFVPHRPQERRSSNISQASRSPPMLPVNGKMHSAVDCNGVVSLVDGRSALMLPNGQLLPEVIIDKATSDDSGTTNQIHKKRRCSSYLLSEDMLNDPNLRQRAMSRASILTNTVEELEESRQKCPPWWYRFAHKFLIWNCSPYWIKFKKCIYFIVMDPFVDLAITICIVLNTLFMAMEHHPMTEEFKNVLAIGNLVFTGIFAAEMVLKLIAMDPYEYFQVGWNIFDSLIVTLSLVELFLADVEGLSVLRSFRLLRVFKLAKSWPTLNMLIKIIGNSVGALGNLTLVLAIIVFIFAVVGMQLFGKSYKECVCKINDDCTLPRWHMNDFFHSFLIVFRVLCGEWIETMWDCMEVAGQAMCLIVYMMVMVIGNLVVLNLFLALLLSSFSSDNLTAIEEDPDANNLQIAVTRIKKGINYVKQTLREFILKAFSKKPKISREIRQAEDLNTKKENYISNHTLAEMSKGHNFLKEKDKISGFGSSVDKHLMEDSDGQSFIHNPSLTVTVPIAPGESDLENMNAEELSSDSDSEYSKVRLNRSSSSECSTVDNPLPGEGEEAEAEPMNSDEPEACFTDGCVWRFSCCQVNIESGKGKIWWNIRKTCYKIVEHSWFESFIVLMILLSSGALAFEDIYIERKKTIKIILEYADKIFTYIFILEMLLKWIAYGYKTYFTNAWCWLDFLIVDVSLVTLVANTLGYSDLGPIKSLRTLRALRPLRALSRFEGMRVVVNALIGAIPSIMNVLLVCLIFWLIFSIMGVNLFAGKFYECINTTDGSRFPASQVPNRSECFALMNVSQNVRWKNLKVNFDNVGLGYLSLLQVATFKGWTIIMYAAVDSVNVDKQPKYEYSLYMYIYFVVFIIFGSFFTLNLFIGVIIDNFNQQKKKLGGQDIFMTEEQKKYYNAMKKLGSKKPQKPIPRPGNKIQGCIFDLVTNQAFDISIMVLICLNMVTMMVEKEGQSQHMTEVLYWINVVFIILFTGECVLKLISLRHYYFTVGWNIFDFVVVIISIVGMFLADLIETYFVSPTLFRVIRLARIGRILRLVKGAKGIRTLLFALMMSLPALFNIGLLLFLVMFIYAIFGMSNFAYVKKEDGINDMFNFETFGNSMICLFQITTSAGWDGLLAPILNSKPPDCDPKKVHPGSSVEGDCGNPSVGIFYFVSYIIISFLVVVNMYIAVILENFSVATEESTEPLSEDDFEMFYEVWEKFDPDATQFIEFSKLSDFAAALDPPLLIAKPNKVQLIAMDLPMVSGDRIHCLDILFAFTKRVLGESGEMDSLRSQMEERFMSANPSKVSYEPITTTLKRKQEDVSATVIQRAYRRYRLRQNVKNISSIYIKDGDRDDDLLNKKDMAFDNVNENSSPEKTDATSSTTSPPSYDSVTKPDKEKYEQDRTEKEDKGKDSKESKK
Experimental: NaV1.7 was expressed in HEK293 cells upon induction with tetracycline. Cells were cultured in DMEM containing 10% dialyzed Fetal Bovine Serum (VWR, Radnor, Pa.), 1% Glutamax (VWR, Radnor, Pa.), 1% Penicillin-Streptomycin (VWR, Radnor, Pa.), 100 mg/L Hygromycin (Thermo Fisher Scientific, Waltham, Mass. and 5 mg/L Blasticidin (Alfa Aesar, Haverhill, Mass.). Cells were grown and maintained at 37° C. in a humidified environment containing 10% CO2 in air. Cells were detached from the culture flask for passage and harvested using 0.05% Trypsin-EDTA (Thermo Fisher Scientific, Waltham, Mass.). To induce NaV1.7, cells were induced with tetracycline (0.1-1 μg/mL, IBI Scientific, Peosta, Iowa) the day before recording.
Before experiments, cells were washed with DPBS (VWR, Radnor, Pa.), digested with Detachin (VWR Radnor, Pa.) and then triturated 10 times in CHO Serum-Free Media (VWR Radnor, Pa.) to resuspend the cells and to break apart cell aggregates. Cells were counted and the final concentration was set at 2-5 million cells per mL.
The intracellular solution contained the following: 140 mM CsF, 1 mM/5 mM EGTA/CsOH, 10 mM HEPES, 10 mM NaCl, adjusted to pH 7.3 with CsOH, and osmolality to 320 with sucrose. The external solution contained the following: 145 mM NaCl, 4 mM KCl, 1 mM MgCl2, 2 mM CaCl2, 10 mM HEPES, 10 mM Glucose, adjusted to pH 7.4 with CsOH and osmolality to 305 with sucrose. All chemicals are from Sigma-Aldrich, St. Louis, Mo. In order to test the degree of internal block by test compounds, the compounds were dissolved in internal solution at the indicated test concentration. […] In order to test the degree of external block by test compounds the compounds were dissolved in external solution at the indicated test concentration.
Automated Patch Clamps were performed on Qube 384 (Sophion Bioscience, Woburn Mass.) with multihole Qchips at a temperature setting of 22 degrees. The whole cells configuration was formed with default Qube seal and break-in parameter. The membrane potential was held at −100 mV before the voltage protocol began. Two voltage protocols were followed.
Step 1: Cells were held at −100 mV with a depolarized pulse to −20 mV for 10 ms, the interval was set at 5 s. Currents were corrected by default leak subtraction from every pulse. The duration was set at 5 mins.
Step 2: Cells were held at −100 mV with a depolarized pulse to −20 mV for 10 ms. The frequency was 5 Hz. Currents were corrected by leak subtraction calculated before step 2. The duration was set at 4 mins.
After Step 2, the Qchip was removed from the recording chamber. The internal solution was changed with solutions containing test compounds. Qchips were held at −100 mV without pulsing after being replaced in the recording chamber. The total solution switching time was 8 minutes. After the internal solution exchange, Cells were recorded and step 2 for repeated for 10 minutes.
Data analysis was performed by Sophion Analyzer. Cells were filtered with minimum 50 MOhm seal resistance and minimum 5 nA starting current. The rundown of the currents was corrected with control cells (Non-Drug). The remaining was calculated by averaging last 3 points in the end of experiments. The base line was calculated as the average of last 3 points of Step 2. IC50 curves were plotted with DR-plots/Hill function (a dose-response plot with a Hill fit). Data analysis was performed by Sophion Analyzer.

PAMPA (10^−6 cm/s) [1] | IC50 (NaV1.7) | SMILES
+ (<0.1 10^−6 cm/s) | < 1 µM | Cc1cccc(C)c1NC(=O)C[n+]1cccn1C1CCCC1 [Compound 71]
+ (<0.1 10^−6 cm/s) | 3 to 10 µM | COC(=O)c1c(F)c[n+](CC(=O)Nc2c(C)cccc2C)cc1F [Compound 89]
+ (<0.1 10^−6 cm/s) | 3 to 10 µM | CCCn1ccc(C)[n+]1CC(=O)Nc1c(C)cccc1C [Compound 101]
++ (0.1-2.0 10^−6 cm/s) | 1 to 3 µM | Cc1cccc(C)c1NC(=O)C[n+]1cccc(C(F)(F)F)c1 [Compound 66]
+ (<0.1 10^−6 cm/s) | 10 to 30 µM | Cc1cccc(C)c1NC(=O)C[n+]1cccn1CC#N [Compound 69]
++ (0.1-2.0 10^−6 cm/s) | 1 to 3 µM | CNC(=O)Cc1ccc[n+](CC(=O)Nc2c(C)cccc2C)c1 [Compound 33]
+ (<0.1 10^−6 cm/s) | < 1 µM | Cc1cccc(C)c1NC(=O)Cn1ccc[n+]1CC(=O)Nc1c(C)cccc1C [Compound 109]
+ (<0.1 10^−6 cm/s) | 1 to 3 µM | Cc1cccc(C)c1NC(=O)C[n+]1cccn1CC1CC1 [Compound 73]
+ (<0.1 10^−6 cm/s) | 1 to 3 µM | CCn1c(C)cc[n+]1CC(=O)Nc1c(C)cccc1C [Compound 104]
+ (<0.1 10^−6 cm/s) | 1 to 3 µM | Cc1cccc(C)c1NC(=O)C(Cc1ccccc1)[n+]1ccccc1 (stereo not drawn) [Compound 106]
+ (<0.1 10^−6 cm/s) | < 1 µM | Cc1cccc(C)c1NC(=O)C[n+]1c(C)cc(C)n1C [Compound 94]
+ (<0.1 10^−6 cm/s) | 3 to 10 µM | CCOC(=O)c1cc(C)[n+](CC(=O)Nc2c(C)cccc2C)n1C [Compound 84]
+ (<0.1 10^−6 cm/s) | 1 to 3 µM | COc1cc(OC)c[n+](CC(=O)Nc2c(C)cccc2C)c1 [Compound 98]
+ (<0.1 10^−6 cm/s) | 1 to 3 µM | CCCCn1ccc[n+]1CC(=O)Nc1c(C)cccc1C [Compound 83]
+ (<0.1 10^−6 cm/s) | < 1 µM | Cc1cccc(C)c1NC(=O)C[n+]1cc(F)cc(-c2ccccc2)c1 [Compound 77]
++ (0.1-2.0 10^−6 cm/s) | < 1 µM | Cc1cccc(C)c1NC(=O)C[n+]1cccc(Cc2ccccc2)c1 [Compound 34]
+ (<0.1 10^−6 cm/s) | 3 to 10 µM | CCOC(=O)Cn1cc(C)c[n+]1CC(=O)Nc1c(C)cccc1C [Compound 76]
+ (<0.1 10^−6 cm/s) | 3 to 10 µM | Cc1cccc(C)c1NC(=O)C[n+]1cccc(S(C)(=O)=O)c1 [Compound 46]
+ (<0.1 10^−6 cm/s) | 1 to 3 µM | CCNc1ccc[n+](CC(=O)Nc2c(C)cccc2C)c1 [Compound 50]
++ (0.1-2.0 10^−6 cm/s) | < 1 µM | Cc1cccc(C)c1NC(=O)C[n+]1cccc(N2CCCC2)c1 [Compound 51]
++ (0.1-2.0 10^−6 cm/s) | 3 to 10 µM | Cc1cccc(C)c1NC(=O)C[n+]1cc2ccccc2n1C [Compound 54]
+ (<0.1 10^−6 cm/s) | < 1 µM | CCOC(=O)CCCn1ccc[n+]1CC(=O)Nc1c(C)cccc1C [Compound 75]
++ (0.1-2.0 10^−6 cm/s) | 1 to 3 µM | Cc1cccc(C)c1NC(=O)C(CC(C)C)[n+]1ccccc1 (stereo not drawn) [Compound 108]
+ (<0.1 10^−6 cm/s) | 1 to 3 µM | CCn1ccc(C)[n+]1CC(=O)Nc1c(C)cccc1C [Compound 95]
+ (<0.1 10^−6 cm/s) | 3 to 10 µM | Cc1cccc(C)c1NC(=O)C[n+]1cc(OCc2ccccc2)ccc1Cl [Compound 103]
+ (<0.1 10^−6 cm/s) | 1 to 3 µM | CCCn1c(C)cc[n+]1CC(=O)Nc1c(C)cccc1C [Compound 81]
+ (<0.1 10^−6 cm/s) | 1 to 3 µM | Cc1cccc(C)c1NC(=O)C[n+]1cccc(S(=O)(=O)N(C)C)c1 [Compound 47]
